These are literature values, as cited in US12551521B2, “Compositions including pine bark extract, berryfruit extract and a source of l-theanine and uses thereof” (AREPA IP LIMITED, priority 2017, dated 2026).

For this data set the following is noted: in vivo.

Take `CCNC(=O)CC[C@H](N)C(=O)O` [L-theanine, γ-glutamylethylamide]: the blood-brain barrier crossing result is given as “known to cross the blood-brain barrier”.
